{"source": "paper PMC6333907", "about": "“Oligopeptide Signaling through TbGPR89 Drives Trypanosome Quorum Sensing” (Cell, 2019)", "biological_target": "T1, YjdL (Escherichia coli, UniProt P39276)", "T1 construct": "gene dtpC; pET28a-YjdL, His-tag vector, overexpressed in whole E. coli BL21-CodonPlus (DE3)-RIPL cells", "T1 sequence (P39276 1-485)": "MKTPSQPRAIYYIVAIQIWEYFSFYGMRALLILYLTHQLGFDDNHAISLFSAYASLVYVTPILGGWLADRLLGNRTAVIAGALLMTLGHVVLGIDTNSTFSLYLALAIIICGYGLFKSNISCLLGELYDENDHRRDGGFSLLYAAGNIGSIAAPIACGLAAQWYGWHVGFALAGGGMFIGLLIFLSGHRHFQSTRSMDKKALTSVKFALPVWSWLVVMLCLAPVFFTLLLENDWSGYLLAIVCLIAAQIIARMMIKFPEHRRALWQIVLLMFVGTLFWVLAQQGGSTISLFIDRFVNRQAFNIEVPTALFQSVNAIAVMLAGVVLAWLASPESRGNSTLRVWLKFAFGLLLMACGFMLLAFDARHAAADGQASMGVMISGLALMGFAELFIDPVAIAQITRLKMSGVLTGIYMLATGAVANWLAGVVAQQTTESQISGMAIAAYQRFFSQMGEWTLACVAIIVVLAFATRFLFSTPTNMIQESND", "assay": "fluorescent dipeptide uptake in E. coli expressing the protein", "assay_type": "cell-based", "settings": "pH 6.5, 37 °C, 15-20 min; printed final 500 μM (1.5 μl of 20 mM in 100 μl); labelled compound"}
{"smiles": "Cc1c(CC(=O)NCCCC[C@H](NC(=O)CCN)C(=O)O)c(=O)oc2cc(N)ccc12", "note": "[β-Ala-Lys-AMCA]", "values": [{"measurement": "fluorescent dipeptide uptake in E. coli expressing the protein", "value": "Relative uptake of fluorescent dipeptide β-ALA-Lys-AMCA in E. coli induced (+IPTG)"}]}
